The test system of data set [1] is Human Breast Cancer Xenografts (MDA-MB-468). The data set is described as follows: 5-FU/HA adjuvant therapy efficacy, 6-week study. It is filed as in vivo. How it is done:
(§1) One of the most commonly used treatment regimens for human breast cancer is cyclophosphamide, methotrexate and 5-fluorouacil which is administered on day 1 and 8 of a 28 day cycle. In human breast cancer the initial treatment regimen is for 6 cycles at which time the patient condition is re-assessed, therefore we tried to simulate the human treatment regimen as closely as possible by exposing the mice to 6 cycles (6 months) of treatment in a long term efficacy study and a 6 cycles (6 week) short term efficacy study. Considering the life cycle of a mouse is approximately 2 years we commenced both short-term and long-term treatment protocols as shown in Table 8.
(§2) Mice were randomly divided into 7 groups of 8 animals per group for the short term study and 5 groups of 8 animals for the long term study (refer to Table 8 for dosage and treatment administration schedule).
(§3) Animals were weighed and tumour volumes measured on the day of treatment application for long term study as described in Example 8. In the 6-week study animals were weighed and tumour volumes measured on a daily basis. […] It has been experimentally proven that stress can be a major factor in a patients response to chemotherapy (Shackney et al, 1978), therefore we ensured that equal numbers of mice were allocated to each cage, the animal number per cage varied from 5-8 depending on the stage of experimentation.
(§4) The experimental end-point occurred when the animal had to be euthanised due to degree of disease progression or when the 6 month (long term) or 6 week (short term) treatment regimen was completed. Due to the animal ethics guidelines the animals were monitored fortnightly by an independent animal ethics officer who assessed the degree of disease progression.
The tissue was fixed for 16-24 h before histological processing. Fixed tissue was dehydrated stepwise to 100% ethanol and embedded in paraffin blocks from which 2-4 μm sections were placed on glass microscope slides. Staining the tissue sections with a haematoxylin nuclear stain and eosin cytoplasmic stain highlighted any pathological features that could indicate treatment toxicity.
Nine to 11 lymph nodes were collected per animal, ensuring that all nodes which drained the tumour area were collected. There are currently two methods used for the detection of lymph node metastasis:
The haematoxylin and eosin stained lymph nodes were examined by Dr P. Allen (certified pathologist) where each node was microscopically examined for the presence of tumour cells. The CEA immunostained lymph nodes were microscopically examined, where any positively stained nodes were counted and considered positive for lymph node metastasis.
Tumour volume was monitored on a daily or weekly basis by calliper measurements and tumour volume calculated as previously described in example 8.
One of the most common toxic effects of 5-FU is on the gastro-intestinal tract where haemorrhagic enteritis and intestinal perforation can occur (Martindale, 1993). Animals were monitored daily for GI tract upset such as diarrhoea and weekly for more severe toxicity manifestations such as weight loss. Weight loss was monitored by calculating net body weight as estimated by subtracting tumour weight, which was calculated as 1 g×tumour volume (cm^3) as cited in Shibamoto et al, 1996.

The conditions of data set [2]: in vivo; cited from earlier work.
In data set [3] the test system is Human Breast Cancer Xenografts (MDA-MB-468). Description: 5-FU/HA adjuvant therapy efficacy, 6-month study. It is filed as in vivo. The protocol:
as §1, §2, §3, §4
The TDT is the time taken (days) for a tumour to double in mass or cell number, a parameter of tumour growth which is simple to measure and can be easily related to clinical tumour behaviour in conceptional terms (Shackney et al, 1978). By monitoring the tumour doubling time it is often possible to evaluate tumour chemotherapeutic response, as slowly growing tumours tend to respond poorly to chemotherapy (Schabel, 1975).
The overall patient survival time was calculated as the time (days or weeks) that the animal lived after the commencement of treatment.

Data set [4] relates to MDA-MB-468. Description: Drug cytotoxicity assay (cell count after 4 days in test media), MDA-MB-468. It is filed as cell-based. The conditions noted are these: Homo sapiens, 96 h, 5-FU alone.
Experimental: A stock of HA solution (10 μM, 7 mg/ml) was prepared by dissolving desiccated HA (modal Mr 7×10^5 Da,) in 0.9% w/v pyrogen-free injection grade NaCl. To ensure a homogenous solution the HA was dissolved overnight at 4° C. followed by thorough vortexing. To ensure that ‘the HA had maintained its molecular weight during the preparation of the stock solution, the solution was analysed on a Sephacryl S-1000 size exclusion gel with column −40 specifications of 1.6 cm×70 cm, sample size 2 ml, flow rate 18.1/h and 2 ml fraction size. The HA was used at a final concentration of 1000 nm, with all dilutions made in the appropriate growth medium.
Based on these plasma concentrations in vivo the following drug concentrations were selected; 0, 1, 5, 10, 20, 50, 100 μM 5-FU±100 nM HA. […] When the cultures reached confluence the cells were removed from the flasks in 0.25% trypsin/0.05% EDTA. The single-cell suspension was counted with a Coulter counter (ZM1 model) and cells were resuspended to 100,000 cells/ml in cell-specific media. Cells were plated into 24-well plates (2 cm^2 surface area) by adding 0.5 ml of cell suspension per well, resulting in 50,000 cells/well. […] After 4 days of growth in test media the cultures were washed with HBSS, the cells removed from the well by trypsinisation with 0.25% trypsin/0.05% EDTA and cells were counted with a Coulter Counter.
For data set [5] the following is noted: iv 10.5 mg/kg (400 mg/m^2), within 30 min; cited from earlier work.
Data set [6] can be described thus: 1H NMR titration and diffusion experiments of 5-FU with HA. It is filed as physicochemical. The conditions noted are these: 600 MHz 1H NMR titration; HA 750 kDa, 3 mg/mL; pH 8.8 to 9.1. The protocol: To further investigate the nature of the interaction between HA and chemotherapeutic drugs 1H Nuclear Magnetic Resonance (NMR) spectroscopy was used. Deuterium oxide (^2H2O (99.96%)) was obtained from Cambridge Isotope Laboratories. MTX was obtained from Faulding Pharmaceuticals and 5-FU and HA stock solutions were prepared as described previously.
Spectra were recorded at 298 K on a Brüker DRX spectrometer operating at 600 MHz with a shielded gradient unit. The 2D experiments were recorded in phase-sensitive mode using time-proportional phase incrementation for quadrature detection in the t1 dimension (Marion & Wüthrich, 1983). The 2D experiments included TOCSY sequence using a MLEV-17 spin lock sequence (Bax & Davis, 1985) with a mixing time of 120 ms; NOESY (Kumar et al., 1980) with mixing times of 250 and 400 ms and ROESY spectrum with a mixing time of 250 ms. Temperature calibration of the probe was achieved by comparison to ethylene glycol chemical shifts. All chemical shifts (ppm) were referenced to the methyl resonance of 4,4-dimethyl-4-silapentane-1-sulfonate (DSS, 0 ppm).
NMR diffusion experiments were acquired on a Brüker AMX spectrometer equipped with a gradient control unit operating at 500 MHz. All experiments were acquired with 16 or 64 scans at 298 K over 16K of data points and 7575 Hz. A gradient strength of 15.44 G/cm was employed for the diffusion experiments. […]

The nature of data set [7]: 1H NMR deuterium exchange and transferred NOESY of MTX with HA. It is filed as physicochemical.
Text: Solvent suppression of the water signal for NOESY, ROESY and TOCSY experiments was achieved using a modified WATERGATE sequence (Piotto et al., 1992) in which two gradient pulses of 1 ms was applied on either side of a binomial 3-9-19 pulse. Spectra was routinely acquired over 6024 Hz with 4096 complex data points in F2 and 512 increments in the F1 dimension, with 32 scans per increment for the TOCSY experiments and 80 scans for the NOESY. Slowly exchanging NH protons were detected by acquiring a series of one-dimensional (1D) spectra acquired over 16K data points and with 32 scans. […]
Data set [8] has as its system murine Lewis lung xenografts. Particulars: low dose of 0.01 mg/kg; cited from earlier work.
Where [9] appears, read: control schedule HA D1,3 / 5-FU D 2, 4 of 7 day cycle.

Several values for one entry are separate records, joined by “and”; a condition that tells them apart may be missing. Equal values may be shown once.

Broadly, the IC50 is the midpoint of a concentration-inhibition curve. Read a low IC50 as inhibition by little substance.

With `O=c1[nH]cc(F)c(=O)[nH]1` [5-FU, 5-fluorouracil], the “primary tumour at end of the 6 week study compared with the saline group” value in data set [1] is recorded as “significantly smaller tumours”. Moreover, the “Number of animal completing treatment” value in data set [1] (setting [9]) and in data set [1] (days 1 & 2 of 7 day cycle (HA followed by 5-FU: days 1-4)) was 8/8 in each case. Besides, the “TDT Mean ± SEM” value in data set [1] (setting [9]) is on record as 15.3 ± 2.5 days; in data set [1] (days 1 & 2 of 7 day cycle (HA followed by 5-FU: days 1-4), 30 mg/kg 5-FU, 12.5 mg/kg HA), 32.1 ± 3.5 days; in data set [3] (6-month study, days 1 & 8 of 28 day cycle (HA followed by 5-FU: days 1, 2, 8, 9)), 22.7 ± 2.9 days. The “% of animals with lymph node metastasis” value in data set [1] (days 1 & 2 of 7 day cycle) came to 100%. Also, the “% of lymph node involved per animal mean ± SEM” value in data set [1] (days 1 & 2 of 7 day cycle) stood at 14.3 ± 2.9%. In addition, in data set [1] (days 1 & 2 of 7 day cycle), the “Number of new tumours” value is 1. The cure rate in data set [2] was 26%. Further, the “Experimental endpoint: immobilsed” value in data set [3] (6-month study, % of animals) was 62.5% immobilsed. Moreover, the “mice experiencing a cure (tumours fully necrosed and dropped off)” value in data set [3] (6-month study, after approximately 12 weeks of treatment) is reported as “did not experience a “cure””. Also, the “Experimental endpoint: metabolic stress” value in data set [3] (mouse, in vivo) is 37.5% metabolic. The same molecule came in with an IC50 in data set [4] greater than 50 µM. Besides, the peak plasma level in data set [5] was 8 μg/ml and 61 μM. Besides, the “interaction of 5-FU with HA (chemical shift of CH peak)” value in data set [6] is given as “does not appear to be interacting”.
For `CN(Cc1cnc2nc(N)nc(N)c2n1)c1ccc(C(=O)N[C@@H](CCC(=O)O)C(=O)O)cc1` [MTX, methotrexate], the “time for all amine hydrogens of MTX to exchange with deuterium” value in data set [7] (MTX and HA in 0.5% w/v Na2CO3 (pH 9), deuterium oxide added) was no more than 4 min. Also, the “interaction between MTX and HA (transferred NOESY)” value in data set [7] (MTX/HA, no crosspeaks) is “negligible interaction”.
Take `CO[C@@]12[C@H](COC(N)=O)C3=C(C(=O)C(C)=C(N)C3=O)N1C[C@@H]1N[C@@H]12` [mitomycin C]: the anti-tumour activity result in data set [8] was “did not demonstrate anti-tumour activity”.
